Ten compounds from patent US11407831B2, “Pharmaceutical composition administered in combination with substituted dihydropyrrolopyrazole compound and immunotherapeutic agent” (UBE INDUSTRIES, LTD., priority 2017, dated 2022) can be followed below.

Experiment [1] relates to Mouse melanoma cells (B16F10). Description: Mouse Melanoma (B16F10) Cell Growth Inhibition Test. The experiment is classed as cell-based. The conditions noted are these: B16-F10, 72 h, 3 days culture, CellTiter-Glo (ATP). The procedure:
Mouse melanoma cells (B16F10) (Cell Resource Center for Biomedical Research, Institute of Development, Aging and Cancer, Tohoku University, Cat. No. TKG0348) were cultured in DMEM medium (REF. 11965-092 manufactured by GIBCO/Thermo Fisher Scientific Inc.) containing 10% FBS (REF. 10082-147 manufactured by GIBCO/Thermo Fisher Scientific Inc.), 1% penicillin/streptomycin/amphotericin B (REF. 15240-096 manufactured by GIBCO/Thermo Fisher Scientific Inc.), and 1 mM sodium pyruvate (REF. 11360-070 manufactured by GIBCO/Thermo Fisher Scientific Inc.) and inoculated at 0.5 to 2.0×10^3 cells/well to a 96-well plate. After overnight culture in a carbon dioxide incubator, culture was further performed for 3 days in a medium containing a solution of a test compound in DMSO (final DMSO concentration: 0.1%), and then, the amount of ATP was measured using CellTiter-Glo (manufactured by Promega Corp.).
The rate of inhibition of cell growth at each concentration was calculated from the test compound concentration and the amount of ATP, and the concentration of the test compound necessary for inhibiting 50% of cell growth (GI50 value) was calculated by using EXSUS (version 8.1.0, manufactured by CAC Croit Corp.).
For orientation: In ATP-based viability assays light output follows the ATP content of the culture.

Experiment [2] has as its system Mouse melanoma cells (B16F10) subcutaneously transplanted. Kind of experiment: In Vivo Tumor Growth Inhibition Test in Mouse Melanoma Cell (B16F10)-Subcutaneously Transplanted Mouse. Set-up: species or system C57BL/6 mice. The conditions noted are these: day 7. On the procedure: Mouse melanoma cells (B16F10) (Cell Resource Center for Biomedical Research, Institute of Development, Aging and Cancer, Tohoku University, Cat. No. TKG0348) were cultured in DMEM medium (REF. 11965-092 manufactured by GIBCO/Thermo Fisher Scientific Inc.) containing 10% FBS (REF. 10082-147 manufactured by GIBCO/Thermo Fisher Scientific Inc.), 1% penicillin/streptomycin/amphotericin B (REF. 15240-096 manufactured by GIBCO/Thermo Fisher Scientific Inc.), and 1 mM sodium pyruvate (REF. 11360-070 manufactured by GIBCO/Thermo Fisher Scientific Inc.) and adjusted to 1.0×10^7 cells/mL with PBS (REF. 10010-031 manufactured by GIBCO/Thermo Fisher Scientific Inc.). The prepared cell suspension was subcutaneously injected at 0.1 mL/mouse to the right abdomens of C57BL/6 mice (female, supplied by Japan SLC, Inc.). After rearing for a certain period, the long diameter (mm) and short diameter (mm) of tumor were measured with electronic calipers (manufactured by Mitsutoyo Corp., Cat. 500-712-10), and the tumor volume was calculated according to the following expression: Tumor volume (mm^3)=(Long diameter)×(Short diameter)×(Short diameter)×0.5
Individuals whose tumor volume was within the range of 50 to 200 mm^3 were selected and grouped such that the tumor volume was almost equivalent, then an anti-PD-1 antibody (manufactured by Bio X Cell) at 250 μg/mouse or Rat IgG2a (manufactured by Bio X Cell) at 250 μg/mouse was intraperitoneally administered, and further a test compound (25 mg/kg or 100 mg/kg) or only a solvent was orally administered to each group. The initial day of the start of administration was defined as day 0, and the anti-PD-1 antibody or Rat IgG2a were intraperitoneally administered on day 0 and day 3, and the test compound or only the solvent was orally administered once a day from day 0 to day 6. On day 7, the long diameter and short diameter of tumor were measured, and the tumor volume was calculated.

Setting [3] is: test compound oral (25 mg/kg or 100 mg/kg) once a day day 0 to 6 + Rat IgG2a 250 μg/mouse i.p. day 0 and 3, vs Rat IgG2a + solvent group.
[4] abbreviates: test compound oral (25 mg/kg or 100 mg/kg) once a day day 0 to 6 in combination with anti-PD-1 antibody 250 μg/mouse i.p. day 0 and 3.

As a reminder, the GI50 is the concentration at which growth is held to half of that of the control.

Each structure is given as a SMILES string.

As for `Cc1cccc(Cl)c1NC(=O)N1Cc2c(NC(=O)C3([Si](C)(C)C)CCC3)n[nH]c2C1(C)C` [II-215, N-(2-Chloro-6-methylphenyl)-6,6-dimethyl-3-[1-(trimethylsilyl)cyclobutanecarboxamido]-4,6-dihydropyrrolo[3,4-c]pyrazole-5(1H)-carboxamide], in experiment [1], the GI50 was ≤ 2000 nM. Further, the “Rate of inhibition of increase in tumor volume” value (“Rate of inhibition of increase” for short) is “B (50% or more and less than 70%)” in experiment [2] (setting [3]); “A (70% or more and less than 90%)” in experiment [2] (setting [4]). On to `Cc1ccc(F)cc1NC(=O)N1Cc2c(NC(=O)C3([Si](C)(C)C)CCC3)n[nH]c2C1(C)C` [II-361, N-(5-Fluoro-2-methylphenyl)-6,6-dimethyl-3-[1-(trimethylsilyl)cyclobutanecarboxamido]-4,6-dihydropyrrolo[3,4-c]pyrazole-5(1H)-carboxamide], for which the GI50 in experiment [1] was ≤ 2000 nM. Still for that read-out and setting: in the case of `Cc1cccc(Br)c1NC(=O)N1Cc2c(NC(=O)C3([Si](C)(C)C)CCC3)n[nH]c2C1(C)C` [II-299, N-(2-Bromo-6-methylphenyl)-6,6-dimethyl-3-[1-(trimethylsilyl)cyclobutanecarboxamido]-4,6-dihydropyrrolo[3,4-c]pyrazole-5(1H)-carboxamide] it was ≤ 2000 nM. On the same count and under the same terms, as for `CC1(C)c2[nH]nc(NC(=O)C3([Si](C)(C)C)CCC3)c2CN1C(=O)Nc1c(F)cccc1Cl` [II-113, N-(2-Chloro-6-fluorophenyl)-6,6-dimethyl-3-[1-(trimethylsilyl)cyclobutanecarboxamido]-4,6-dihydropyrrolo[3,4-c]pyrazole-5(1H)-carboxamide], the figure is ≤ 2000 nM; as for `Cc1cc2ccc(F)c(NC(=O)N3Cc4c(NC(=O)C5([Si](C)(C)C)CCC5)n[nH]c4C3(C)C)c2o1` [II-1059, N-(6-Fluoro-2-methylbenzofuran-7-yl)-6,6-dimethyl-3-[1-(trimethylsilyl)cyclobutanecarboxamido]-4,6-dihydropyrrolo[3,4-c]pyrazole-5(1H)-carboxamide], ≤ 2000 nM.

Regarding `Cc1ccc(C)c(NC(=O)N2Cc3c(NC(=O)C4([Si](C)(C)C)CCC4)n[nH]c3C2(C)C)c1F` [II-669, N-(2-Fluoro-3,6-dimethylphenyl)-6,6-dimethyl-3-[1-(trimethylsilyl)cyclobutanecarboxamido]-4,6-dihydropyrrolo[3,4-c]pyrazole-5(1H)-carboxamide], the GI50 in experiment [1] is ≤ 2000 nM. Still for that read-out and setting: as for `CC1(C)c2[nH]nc(NC(=O)C3([Si](C)(C)C)CCC3)c2CN1C(=O)Nc1c(F)ccc2ccoc12` [II-1049, N-(6-Fluorobenzofuran-7-yl)-6,6-dimethyl-3-[1-(trimethylsilyl)cyclobutanecarboxamido]-4,6-dihydropyrrolo[3,4-c]pyrazole-5(1H)-carboxamide], the figure is ≤ 2000 nM. Take `Cc1ccc(C)c(NC(=O)N2Cc3c(NC(=O)C4([Si](C)(C)C)CCC4)n[nH]c3C2(C)C)c1` [II-379, N-(2,5-Dimethylphenyl)-6,6-dimethyl-3-[1-(trimethylsilyl)cyclobutanecarboxamido]-4,6-dihydropyrrolo[3,4-c]pyrazole-5(1H)-carboxamide]: the GI50 in experiment [1] was ≤ 2000 nM. The “Rate of inhibition of increase” value in experiment [2] (setting [3]) was “B (50% or more and less than 70%)”; in experiment [2] (setting [4]), “A (70% or more and less than 90%)”. In the case of `Cc1ccccc1NC(=O)N1Cc2c(NC(=O)C3([Si](C)(C)C)CCC3)n[nH]c2C1(C)C` [II-21, 6,6-Dimethyl-N-(o-tolyl)-3-[1-(trimethylsilyl)cyclobutanecarboxamido]-4,6-dihydropyrrolo[3,4-c]pyrazole-5(1H)-carboxamide], the GI50 in experiment [1] was ≤ 2000 nM.

Take `CC1(C)c2[nH]nc(NC(=O)C3([Si](C)(C)C)CCC3)c2CN1C(=O)Nc1c(F)ccc2cc(Cl)oc12` [II-1063, N-(2-Chloro-6-fluorobenzofuran-7-yl)-6,6-dimethyl-3-[1-(trimethylsilyl)cyclobutanecarboxamido]-4,6-dihydropyrrolo[3,4-c]pyrazole-5(1H)-carboxamide]: the GI50 in experiment [1] was ≤ 2000 nM. For the same compound, the “Rate of inhibition of increase” value is “D (10% or more and less than 30%)” in experiment [2] (setting [3]); “B (50% or more and less than 70%)” in experiment [2] (setting [4]).
